Assay results taken from patent US11484603B2, “Methods, systems, and compositions for inhibiting virulence of A/E family pathogens” (ARIZONA BOARD OF REGENTS ON BEHALF OF THE UNIVERSITY OF …, priority 2017, dated 2022).

Columns and labels:
[1] = tested on: EspZ dimerization/oligomerization; assay: ToxLuc system (ToxR-TM-MBP fusions, ctx promoter luciferase reporter); format: cell-based, EPEC; conditions: TM2 derivatives expressed as ToxR-TM-MBP fusions in E. coli ΔmalE strain (NT326); baseline Ala17
Text: (§1) Directional targeting of the TM region to the inner membrane allows the periplasmic MBP domain to complement the growth of the ΔmalE strain in medium containing maltose as the sole carbon source. […] TM domain interactions induce dimerization of cytoplasmic ToxR domains, allowing the transcriptional activator to bind to the ctx promoter and promote expression of the downstream luciferase reporter. […] A 17-residue poly-alanine stretch (Ala17) was used as a baseline TM control for nonspecific ToxR-dependent luciferase activation. A GpA GXXXG mutant (G831) was impaired for luciferase activation (REF).
as §1, with “Membrane-localized GXXXG sequences can promote homo- and hetero-typic interactions between proteins. Referring to FIG. 5A and FIG. 5B, a ToxLuc system was used to verify targeting of the predicted EspZ TM regions to the membrane and to assess the role of GXXXG sequences in EspZ dimerization/oligomerization. […] Western blot analyses confirmed robust expression of all ToxR-TM-MBP fusion proteins. Directional” for “Directional”, “activation. As noted previously, a” for “activation. A”, “mutant (G83I)” for “mutant (G831)”

mitochondrial network = assay: CCCP-induced perturbation of the mitochondrial network (COXIV/DAPI stain); format: cell-based; conditions: compared to mock-treated controls
Text: In transfected cells, EspZ prevented COOP-induced perturbation of the mitochondrial network (compared to control vector-transfected cells). Red=COXIV (mitochondrial stain); blue=DAPI stain.
The uncoupler carbonyl cyanide m-chlorophenylhydrazone (COOP) induces Fis1- and Drp1-dependent mitochondrial fission. In transfected cells, EspZ prevented COOP-induced perturbation of the mitochondrial network (see FIG. 10). Thus, EspZ may be necessary and sufficient for inhibiting mitochondrial fission.

Row | Compound | luciferase activity (TM self-association) [1] | effect on mitochondrial network (mitochondrial network)
1 | LGLGIAAGVLGLVTTVAGGLAMK (Artificial inhibitor peptide based on EspZ) [G85L, targeting peptide, EspZ TM2 derivative] | reduced luciferase activity to near-baseline levels | 
2 | LGLGIAALVLGGVTTVAGGLAMK (Artificial inhibitor peptide based on EspZ) [G81L, targeting peptide, EspZ TM2 derivative] | reduced luciferase activity to near-baseline levels | 
3 | N#CC(C#N)=NNc1cccc(Cl)c1 [CCCP, carbonyl cyanide m-chlorophenylhydrazone] |  | causes fragmentation of the mitochondrial network and its retraction towards the nucleus
4 | LGLLIAALVLGLVTTVAGGLAMK (Artificial inhibitor peptide based on EspZ) [all three G residues, targeting peptide, EspZ TM2 derivative] | abrogated luciferase expression | 
